The source of these data is patent US7456156B2, “Aryl boronic acids for treating obesity” (Genzyme Corporation, priority 2001, dated 2008).

The assay concerns fat absorption through lipase inhibition. Put plainly: In vivo infusion assay in rats (olive oil gavage, triglyceride recovered from intestinal contents). Particulars: rats gavaged with 4 mL olive oil emulsion with drug after 18 hour fast, intestinal contents after 8 hours; for In Vivo Infusion Assay in Rats ED50 (mg/g fat) or estimate: dose at half the maximum recoverable triglyceride. On the procedure: Test compounds were dissolved in DMSO or dionized water. […] Samples were stored at −80° C. until lyophilization.
3 milliliters of hexane was added to each tube then it was capped and vortexed for 15 seconds at high speed. 3 milliliters of 1 N HCl was added then samples were subjected to wrist-action shaking for 1 hour.
The data was expressed as follows. […] The milligrams/liters values obtained from the HPLC analysis were entered.

As for “4-(14′-triethylammonium-3′-thia-1′-keto-tetradecyl)-3-phenyl-boronic acid bromide”, the “In Vivo Infusion Assay in Rats ED50 (mg/g fat) or estimate” value was 11 mg/g fat. Moreover, the “In Vivo Infusion Assay in Rats Ed50 (mg/kg body wt) or estimate” value (dose per body weight) is recorded as 82.5 mg/kg body wt.

As for “4-(14′-trimethylammonium-3′-thia-1′-keto-tridecyl)-3-fluorophenyl-boronic acid bromide”, the “In Vivo Infusion Assay in Rats ED50 (mg/g fat) or estimate” value is 2 mg/g fat. Besides, the “In Vivo Infusion Assay in Rats Ed50 (mg/kg body wt) or estimate” value (dose per body weight) was 15 mg/kg body wt.

On to `C[N+](C)(C)CCCCCCCCCCCSCC(=O)c1ccc(B(O)O)cc1` [4-(14′-trimethylammonium-3′-thia-1′-keto-tetradecyl)-phenyl-boronic acid bromide], for which the “In Vivo Infusion Assay in Rats ED50 (mg/g fat) or estimate” value is 8 mg/g fat. In addition, the ED50 (Rattus norvegicus, po, dose per body weight, read-out: In Vivo Infusion Assay in Rats Ed50 (mg/kg body wt) or estimate) is 60 mg/kg.
